Laboratory results taken from US8912189B2, “Pyridopyrazine derivatives and their use” (Aeterna Zentaris GmbH, priority 2011, dated 2014).

What was measured:
[1] = test system: Hct116; experiment: XTT assay, anti-proliferative effect; format: cell-based; conditions: Homo sapiens, HCT-116; Hct116 cells, ~48 h incubation
Procedure: The principle of this test is based on the intracellular reduction of the tetrazolium dye XTT (sodium 3′-[1-(phenylaminocarbonyl)-3,4-tetrazolium]-bis(4-methoxy-6-nitro)benzene sulfonic acid, Sigma) to a formazan dye by mitochondrial dehydrogenases. The dye is only formed by metabolically active cells and its photometrically measurable intensity is a quantitative indicator for the presence of living cells. The reduction of dye formation by incubation of the cells with substances serves as a parameter for the anti-proliferative effect.
The tumour cell lines (ATCC) were injected into 96-well microtitre plates in a defined cell number (1250 cells/well for Hct116) and then incubated overnight in an incubator at 37° C., 5% CO2 and 95% air humidity. The test substances were prepared as stock solutions (10 mM) in DMSO. To determine the EC50 values the potential inhibitor substances were added to the cells in half-logarithmically graded dilutions, resulting in final concentrations of 1.58 nM-50 μM. The cell plates were then incubated for ˜48 h in an incubator at 37° C., 5% CO2 and 95% air humidity.
For the detection reaction the substrate XTT was mixed with PMS (N-Methyl dibenzopyrazine methylsulfate, Sigma) and added to the cells so that a final concentration of 325 μg XTT/ml and 2.5 μg PMS/ml was obtained. It was then incubated for 3 h at 37° C., 95% air humidity. The formazan salt formed by the cellular dehydrogenases could then be quantified by adsorption at 490 nm.
The % inhibition value was evaluated by means of the following formula from the values for the optical densities measured in each case at 490 nm:
Eight determinations were made for each control and two for the substance samples. The 0% control contains no cells, the 100% control (proliferation control) contains no test substance. The EC50 values were determined using GraphPadPrism.

[2] = molecular target: T1, Erk2; experiment: Cell-free kinase assay (ALPHA technology), Erk2; format: biochemical; conditions: at 10 μM ATP; recombinant human kinase
T1 construct: partly as full-length kinases, partly as shortened fragments, but at least consisting of the functional kinase domains; purchased Upstate 14-173
T1 sequence (P63085 2-358 limits assumed): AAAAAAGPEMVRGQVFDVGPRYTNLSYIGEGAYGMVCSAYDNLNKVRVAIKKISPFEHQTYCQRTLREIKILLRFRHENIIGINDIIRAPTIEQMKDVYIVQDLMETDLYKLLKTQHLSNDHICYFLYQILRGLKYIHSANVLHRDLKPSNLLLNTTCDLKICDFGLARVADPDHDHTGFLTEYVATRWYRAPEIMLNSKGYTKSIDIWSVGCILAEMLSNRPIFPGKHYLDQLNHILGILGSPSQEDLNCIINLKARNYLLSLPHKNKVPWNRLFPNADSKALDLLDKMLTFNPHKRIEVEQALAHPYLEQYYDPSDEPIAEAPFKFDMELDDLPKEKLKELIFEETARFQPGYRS

[3] = molecular target: T2, PI3Kalpha (Homo sapiens, UniProt P42336); experiment: Cell-free kinase assay (ALPHA technology), PI3Kalpha; format: biochemical; conditions: at 100 μM ATP; recombinant human kinase
T2 construct: partly as full-length kinases, partly as shortened fragments, but at least consisting of the functional kinase domains; purchased Upstate 14-602
T2 sequence (P42336 whole entry, the tested form may be a part): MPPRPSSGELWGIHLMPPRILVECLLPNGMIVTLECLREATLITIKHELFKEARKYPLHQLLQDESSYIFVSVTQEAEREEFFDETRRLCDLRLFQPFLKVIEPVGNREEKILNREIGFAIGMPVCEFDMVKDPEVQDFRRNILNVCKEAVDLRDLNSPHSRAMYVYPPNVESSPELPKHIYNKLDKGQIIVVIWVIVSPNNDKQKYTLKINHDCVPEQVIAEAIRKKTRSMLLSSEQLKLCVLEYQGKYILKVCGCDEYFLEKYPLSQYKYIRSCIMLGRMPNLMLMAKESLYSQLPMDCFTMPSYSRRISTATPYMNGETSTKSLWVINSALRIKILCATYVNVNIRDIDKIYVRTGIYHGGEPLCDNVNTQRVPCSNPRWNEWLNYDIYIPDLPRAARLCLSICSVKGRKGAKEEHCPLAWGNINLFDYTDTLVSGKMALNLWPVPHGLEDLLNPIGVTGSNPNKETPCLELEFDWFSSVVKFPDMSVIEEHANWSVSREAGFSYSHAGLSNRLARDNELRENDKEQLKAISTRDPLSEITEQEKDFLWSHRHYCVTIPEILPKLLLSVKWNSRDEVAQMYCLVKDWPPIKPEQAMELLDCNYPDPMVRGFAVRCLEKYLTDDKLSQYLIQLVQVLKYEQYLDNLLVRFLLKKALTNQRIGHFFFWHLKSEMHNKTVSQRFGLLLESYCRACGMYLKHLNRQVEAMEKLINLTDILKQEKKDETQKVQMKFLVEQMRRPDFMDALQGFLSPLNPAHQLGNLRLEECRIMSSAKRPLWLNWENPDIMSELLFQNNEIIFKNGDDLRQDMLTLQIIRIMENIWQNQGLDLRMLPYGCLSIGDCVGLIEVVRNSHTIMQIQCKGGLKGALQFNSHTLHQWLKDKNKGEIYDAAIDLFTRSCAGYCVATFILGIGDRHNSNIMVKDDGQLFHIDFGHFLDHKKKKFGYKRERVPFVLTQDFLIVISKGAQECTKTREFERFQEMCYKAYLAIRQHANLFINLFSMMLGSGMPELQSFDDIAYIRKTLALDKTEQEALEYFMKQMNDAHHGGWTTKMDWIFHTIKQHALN
T2 sequence (P27986 whole entry partner, the tested form may be a part): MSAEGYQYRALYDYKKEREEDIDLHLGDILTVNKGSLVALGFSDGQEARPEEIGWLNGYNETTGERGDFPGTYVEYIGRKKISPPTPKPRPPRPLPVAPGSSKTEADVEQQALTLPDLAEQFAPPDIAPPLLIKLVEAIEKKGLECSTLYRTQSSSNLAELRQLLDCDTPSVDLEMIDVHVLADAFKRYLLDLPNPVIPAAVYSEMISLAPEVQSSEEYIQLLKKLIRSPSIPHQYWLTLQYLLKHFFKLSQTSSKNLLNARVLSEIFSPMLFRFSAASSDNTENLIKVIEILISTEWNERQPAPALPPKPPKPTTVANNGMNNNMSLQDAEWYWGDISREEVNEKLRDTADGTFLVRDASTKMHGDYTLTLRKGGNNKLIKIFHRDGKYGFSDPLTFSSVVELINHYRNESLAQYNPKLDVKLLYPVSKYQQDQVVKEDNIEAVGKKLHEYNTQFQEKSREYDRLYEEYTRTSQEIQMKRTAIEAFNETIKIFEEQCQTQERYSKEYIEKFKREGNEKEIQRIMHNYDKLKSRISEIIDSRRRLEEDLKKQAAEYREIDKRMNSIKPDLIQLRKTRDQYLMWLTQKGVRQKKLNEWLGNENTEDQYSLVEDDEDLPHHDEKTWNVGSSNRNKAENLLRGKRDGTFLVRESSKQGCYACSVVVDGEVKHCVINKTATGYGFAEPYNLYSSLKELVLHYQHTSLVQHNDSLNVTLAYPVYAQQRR
Procedure: The inhibitory effect of the compounds according to the invention was tested on various serine/threonine, tyrosine and lipid kinases in enzymatic assays. Recombinant human kinases such as, for example, Erk2, PI3Kalpha and others were used in this case, partly as full-length kinases, partly as shortened fragments, but at least consisting of the functional kinase domains. The commercial kinase proteins (Proqinase, Upstate) were used as recombinant fusion proteins with GST (glutathion-S-transferase) or His-Tag. Depending on the type of substrate, the various kinase reactions were quantified by means of suitable ALPHA™ beads (Perkin-Elmer).
The substance testing is described in detail hereinafter for the Erk assay. To determine the IC50 value, the potential inhibitor substances were investigated in 10 semi-logarithmically graded concentrations of 3.16 nM-100 μM.
b) PI3K-ALPHAs (e.g. PI3Kalpha): the test substance, 1 ng PI3Kalpha (#14-602, Upstate), 100 μM ATP and 20 μM PIP2 substrate (#64910, Cayman Chemicals) were incubated on a 384-well Optiplate (Perkin-Elmer) for 1 h in 50 mM Hepes, 50 mM NaCl, 5 mM MgCl2, 0.05% Chaps, 5 mM DTT at pH 7.4. The kinase reaction was then stopped by adding ALPHA bead mixes (10 μg/ml, #6760603/Perkin-Elmer) pre-incubated with 1 nM GST:Grp1 fusion protein (Upstate) and 15 nM biotinylated PIP3 (#10009531, Cayman Chemicals) in 50 mM Hepes, 50 mM NaCl, 50 mM EDTA and 0.1% BSA and left to stand overnight.
The fluorescence was detected the following morning in a Envision plate reader (Perkin-Elmer).
The %-inhibition values per substance concentration were calculated by means of the following formula from the raw data determined in the Envision plate reader:
Eight determinations were made for each control and two for the substance samples. The 0% control either contains no ATP or no substrate, the 100% control (fully active kinase) contains no test substance. The IC50 values were determined using GraphPadPrism.

Row | melting point | SMILES | other results
1 | 217 °C | COc1cccc(Cn2cc(-c3cnc4ccc(NC(=S)NCC(F)(F)F)nc4n3)cn2)c1 [Compound 47, 1-{3-[1-(3-Methoxy-benzyl)-1H-pyrazol-4-yl]-pyrido[2,3-b]pyrazin-6-yl}-3-(2,2,2-trifluoro-ethyl)-thiourea] | 
2 | 242 to 245 °C | CCNC(=S)Nc1ccc2ncc(-c3cnn(Cc4cccc(C)c4F)c3)nc2n1 [Compound 48, 1-Ethyl-3-{3-[1-(2-fluoro-3-methyl-benzyl)-1H-pyrazol-4-yl]-pyrido[2,3-b]pyrazin-6-yl}-thiourea] | 
3 | 222 °C | CCNC(=S)Nc1ccc2ncc(-c3cnn(Cc4cccc(OCC)c4)c3)nc2n1 [Compound 49, 1-{3-[1-(3-Ethoxy-benzyl)-1H-pyrazol-4-yl]-pyrido[2,3-b]pyrazin-6-yl}-3-ethyl-thiourea] | 
4 | 249 °C | CCNC(=S)Nc1ccc2ncc(-c3cnn(Cc4ccc(Cl)cc4)c3)nc2n1 [Compound 50, 1-{3-[1-(4-Chloro-benzyl)-1H-pyrazol-4-yl]-pyrido[2,3-b]pyrazin-6-yl}-3-ethyl-thiourea] | 
5 | 237 °C | CCNC(=O)Nc1ccc2ncc(-c3cnn(Cc4ccc(O)c(OC)c4)c3)nc2n1 [Compound 54, 1-Ethyl-3-{3-[1-(4-hydroxy-3-methoxy-benzyl)-1H-pyrazol-4-yl]-pyrido[2,3-b]pyrazin-6-yl}-urea] | 
6 | 250 °C (dec.) | CCNC(=O)Nc1ccc2ncc(-c3csc(C(=O)O)c3)nc2n1 [Compound 212, 4-[6-(3-Ethyl-ureido)-pyrido[2,3-b]pyrazin-3-yl]-thiophene-2-carboxylic acid] | 
7 | 247 °C | CCNC(=O)Nc1ccc2ncc(-c3cnn(CCC(N)=O)c3)nc2n1 [Compound 404, 3-{4-[6-(3-Ethyl-ureido)-pyrido[2,3-b]pyrazin-3-yl]-pyrazol-1-yl}-propionamide] | 
8 | 235 °C | CCNC(=O)Nc1ccc2ncc(-c3cnn(CCNC(=O)OC(C)(C)C)c3)nc2n1 [Compound 406, (2-{4-[6-(3-Ethyl-ureido)-pyrido[2,3-b]pyrazin-3-yl]-pyrazol-1-yl}ethyl)-carbamic acid tert-butyl ester] | 

Further lines, the molecule ahead of its results:

Row | SMILES | melting point | other results
9 | CCNC(=S)Nc1ccc2ncc(-c3cnn(Cc4cccc(OC(F)F)c4)c3)nc2n1 [Compound 27, 1-{3-[1-(3-Difluoromethoxy-benzyl)-1H-pyrazol-4-yl]-pyrido[2,3-b]pyrazin-6-yl}-3-ethyl-thiourea] |  | EC50 [1]: 1530 nM; IC50 [2]: 750 nM; IC50 [3]: 59 nM
10 | CCNC(=S)Nc1ccc2ncc(-c3cnn(Cc4cccc(N(C)C)c4)c3)nc2n1 [Compound 37, 1-{3-[1-(3-Dimethylamino-benzyl)-1H-pyrazol-4-yl]-pyrido[2,3-b]pyrazin-6-yl}-3-ethyl-thiourea] | 215 °C | 
11 | CCNC(=S)Nc1ccc2ncc(-c3cnn(Cc4ccc(F)c(Cl)c4)c3)nc2n1 [Compound 38, 1-{3-[1-(3-Chloro-4-fluoro-benzyl)-1H-pyrazol-4-yl]-pyrido[2,3-b]pyrazin-6-yl}-3-ethyl-thiourea] | 235 to 238 °C | 
12 | CCNC(=S)Nc1ccc2ncc(-c3cnn(Cc4cc(OC)cc(OC)c4)c3)nc2n1 [Compound 39, 1-{3-[1-(3,5-Dimethoxy-benzyl)-1H-pyrazol-4-yl]-pyrido[2,3-b]pyrazin-6-yl}-3-ethyl-thiourea] | 230 °C | 
13 | CCNC(=S)Nc1ccc2ncc(-c3cnn(Cc4ccc(OC)c(OC)c4OC)c3)nc2n1 [Compound 43, 1-Ethyl-3-{3-[1-(2,3,4-trimethoxy-benzyl)-1H-pyrazol-4-yl]-pyrido[2,3-b]pyrazin-6-yl}-thiourea] | 213 °C | 
14 | CCNC(=S)Nc1ccc2ncc(-c3cnn(CCCc4ccccc4)c3)nc2n1 [Compound 44, 1-Ethyl-3-{3-[1-(3-phenyl-propyl)-1H-pyrazol-4-yl]-pyrido[2,3-b]pyrazin-6-yl}-thiourea] | 206 to 208 °C | 
15 | CCNC(=S)Nc1ccc2ncc(-c3cnn(Cc4cc(OC)c(OC)c(OC)c4)c3)nc2n1 [Compound 46, 1-Ethyl-3-{3-[1-(3,4,5-trimethoxy-benzyl)-1H-pyrazol-4-yl]-pyrido[2,3-b]pyrazin-6-yl}-thiourea] | 232 °C | 
16 | Cc1cccc(Cn2cc(-c3cnc4ccc(NC(=S)NCC(F)(F)F)nc4n3)cn2)c1 [Compound 51, 1-{3-[1-(3-Methyl-benzyl)-1H-pyrazol-4-yl]-pyrido[2,3-b]pyrazin-6-yl}-3-(2,2,2-trifluoro-ethyl)-thiourea] | 249 °C | 
17 | CCNC(=S)Nc1ccc2ncc(-c3cnn(Cc4ccccc4C)c3)nc2n1 [Compound 52, 1-Ethyl-3-{3-[1-(2-methyl-benzyl)-1H-pyrazol-4-yl]-pyrido[2,3-b]pyrazin-6-yl}-thiourea] | 252 to 255 °C | 
18 | CCNC(=S)Nc1ccc2ncc(-c3cnn(CCc4ccccc4)c3)nc2n1 [Compound 53, 1-Ethyl-3-[3-(1-phenethyl-1H-pyrazol-4-yl)-pyrido[2,3-b]pyrazin-6-yl]-thiourea] | 231 to 233 °C | 
19 | CCNC(=S)Nc1ccc2ncc(-c3cnn(Cc4ccc(O)c(OC)c4)c3)nc2n1 [Compound 55, 1-Ethyl-3-{3-[1-(4-hydroxy-3-methoxy-benzyl)-1H-pyrazol-4-yl]-pyrido[2,3-b]pyrazin-6-yl}-thiourea] | 242 °C | IC50 [2]: 523 nM; IC50 [3]: 391 nM
20 | CCNC(=O)Nc1ccc2ncc(-c3cnn(Cc4ccc(OC)c(O)c4)c3)nc2n1 [Compound 56, 1-Ethyl-3-{3-[1-(3-hydroxy-4-methoxy-benzyl)-1H-pyrazol-4-yl]-pyrido[2,3-b]pyrazin-6-yl}-urea] | 250 °C | 
21 | CCNC(=S)Nc1ccc2ncc(-c3cnn(Cc4ccc(OC)c(O)c4)c3)nc2n1 [Compound 57, 1-Ethyl-3-{3-[1-(3-hydroxy-4-methoxy-benzyl)-1H-pyrazol-4-yl]-pyrido[2,3-b]pyrazin-6-yl}-thiourea] | 230 °C | 
22 | CCNC(=O)Nc1ccc2ncc(-c3cnn(Cc4cccc(S(C)(=O)=O)c4)c3)nc2n1 [Compound 64, 1-Ethyl-3-{3-[1-(3-methanesulfonyl-benzyl)-1H-pyrazol-4-yl]-pyrido[2,3-b]pyrazin-6-yl}-urea] | 218 °C | 
23 | CCNC(=S)Nc1ccc2ncc(-c3cnn(Cc4cccc(S(C)(=O)=O)c4)c3)nc2n1 [Compound 65, 1-Ethyl-3-{3-[1-(3-methanesulfonyl-benzyl)-1H-pyrazol-4-yl]-pyrido[2,3-b]pyrazin-6-yl}-thiourea] |  | EC50 [1]: 2110 nM; IC50 [2]: 225 nM; IC50 [3]: 180 nM
24 | CCNC(=O)Nc1ccc2ncc(-c3cnn(Cc4cccc(OCCOC)c4)c3)nc2n1 [Compound 66, 1-Ethyl-3-(3-{1-[3-(2-methoxy-ethoxy)-benzyl]-1H-pyrazol-4-yl}-pyrido[2,3-b]pyrazin-6-yl)-urea] | 201 °C | 
25 | CCNC(=O)Nc1ccc2ncc(-c3ccc(CO)s3)nc2n1 [Compound 396, 1-Ethyl-3-[3-(5-hydroxymethyl-thiophen-2-yl)-pyrido[2,3-b]pyrazin-6-yl]-urea] | 222 °C | 
26 | CCNC(=O)Nc1ccc2ncc(-c3ccc(C)o3)nc2n1 [Compound 416, 1-Ethyl-3-[3-(5-methyl-furan-2-yl)-pyrido[2,3-b]pyrazin-6-yl]-urea] | 242 °C | 
27 | CCNC(=O)Nc1ccc2ncc(-c3ccoc3)nc2n1 [Compound 432, 1-Ethyl-3-(3-furan-3-yl-pyrido[2,3-b]pyrazin-6-yl)-urea] | 240 °C | 
